Measured values: patent US20260125375A1 (Pfizer Inc., priority 2022, published 2026)
Where two headings read alike, the source gives them in different places.

Legend:
[1] = molecular target: T1, C-CBL (Homo sapiens, UniProt P22681); assay: Jurkat HiBit-IL2 assay (CBL-B KO), reporter cell line expressing C-CBL only; assay type: cell-based; details: geometric mean, read-out: CBL-B KO EC50 (nM) GMean
T1 construct: endogenous in cells; host or cells: Jurkat HiBit-IL2 reporter cells, CBL-B knocked out by CRISPR
Outline: (§1)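 IL-2 secretion was measured by HiBiT luminescence after 1 h compound exposure (0.1% DMSO) and 4 h TCR/CD28 stimulation (final anti-CD3 1 μg/ml, anti-CD28 2 μg/ml, 37 °C) of Jurkat reporters lacking c-CBL or CBL-B. EC50 came from fold-of-effect versus stimulated-only cells, as geometric means across tests.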

[2] = molecular target: T2, WT CBL-B (36-427) (Homo sapiens, UniProt Q13191); assay: Surface Plasmon Resonance (SPR) assay, binding affinity and kinetics, CBL-B; details: SPR at 10° C., biotinylated WT CBL-B (36-427) on streptavidin chip; geometric mean; read-out: CBL-B SPR Kd (nM) GMean
T2 construct: N-terminal biotinylated WT CBL-B (36-427) and C-CBL (46-435) were captured on a streptavidin (SA) coated sensor chip
T2 sequence (Q13191 36-427): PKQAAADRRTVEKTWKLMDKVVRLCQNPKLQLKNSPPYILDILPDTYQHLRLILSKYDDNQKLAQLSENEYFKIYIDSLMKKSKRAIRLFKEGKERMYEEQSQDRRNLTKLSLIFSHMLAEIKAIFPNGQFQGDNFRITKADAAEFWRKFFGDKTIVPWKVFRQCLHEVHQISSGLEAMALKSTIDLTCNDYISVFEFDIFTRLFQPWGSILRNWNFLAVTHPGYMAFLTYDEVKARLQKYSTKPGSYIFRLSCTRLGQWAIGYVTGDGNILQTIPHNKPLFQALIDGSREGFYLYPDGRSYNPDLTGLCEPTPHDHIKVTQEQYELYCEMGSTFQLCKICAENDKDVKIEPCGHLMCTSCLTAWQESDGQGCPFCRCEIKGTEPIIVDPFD
Outline: (§2)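 SPR kinetics at 10° C, run either single-cycle (0.001–1 μM, 3-fold, 6 points, 120 s on, >5400 s off) or multi-cycle (10 points, 2-fold, top 10 or 100 μM, 90 s on). Proteins were N-biotinylated CBL-B (36-427) and C-CBL (46-435) on SA surfaces, in pH 7.2 HEPES, 2% DMSO.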

[3] = molecular target: T3, CBL-B (Homo sapiens, UniProt Q13191); assay: Jurkat HiBit-IL2 assay (c-CBL KO), reporter cell line expressing CBL-B only; assay type: cell-based; details: geometric mean, read-out: C-CBL KO EC50 (nM) GMean
T3 construct: endogenous in cells; host or cells: Jurkat HiBit-IL2 reporter cells, C-CBL knocked out by CRISPR
T3 sequence (Q13191 whole entry): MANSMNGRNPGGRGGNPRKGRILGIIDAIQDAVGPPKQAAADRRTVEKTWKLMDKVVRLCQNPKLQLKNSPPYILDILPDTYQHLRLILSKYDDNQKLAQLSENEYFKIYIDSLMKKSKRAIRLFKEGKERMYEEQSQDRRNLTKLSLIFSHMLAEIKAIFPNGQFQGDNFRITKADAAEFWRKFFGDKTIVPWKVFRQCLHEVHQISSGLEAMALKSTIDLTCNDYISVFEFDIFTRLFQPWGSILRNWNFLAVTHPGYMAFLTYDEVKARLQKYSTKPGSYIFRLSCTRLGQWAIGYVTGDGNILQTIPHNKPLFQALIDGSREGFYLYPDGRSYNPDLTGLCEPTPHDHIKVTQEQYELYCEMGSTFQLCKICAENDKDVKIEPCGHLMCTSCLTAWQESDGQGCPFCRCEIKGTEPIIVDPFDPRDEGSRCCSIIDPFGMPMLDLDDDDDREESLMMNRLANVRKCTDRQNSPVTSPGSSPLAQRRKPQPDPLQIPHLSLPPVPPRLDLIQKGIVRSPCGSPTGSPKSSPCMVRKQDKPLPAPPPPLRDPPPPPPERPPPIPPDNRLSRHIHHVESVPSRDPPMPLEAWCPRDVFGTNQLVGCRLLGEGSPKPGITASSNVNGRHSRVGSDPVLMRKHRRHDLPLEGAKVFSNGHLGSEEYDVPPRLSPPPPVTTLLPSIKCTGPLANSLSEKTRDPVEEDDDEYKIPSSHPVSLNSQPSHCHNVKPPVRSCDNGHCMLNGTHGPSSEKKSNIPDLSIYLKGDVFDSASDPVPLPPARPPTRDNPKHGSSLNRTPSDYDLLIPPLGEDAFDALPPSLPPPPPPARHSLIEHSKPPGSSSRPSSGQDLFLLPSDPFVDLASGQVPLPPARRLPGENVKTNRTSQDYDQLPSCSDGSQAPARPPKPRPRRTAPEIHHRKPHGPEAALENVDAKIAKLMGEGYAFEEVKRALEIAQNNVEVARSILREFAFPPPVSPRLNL
Outline: as §1

[4] = molecular target: T4, C-CBL (46-435) (Homo sapiens, UniProt P22681); assay: Surface Plasmon Resonance (SPR) assay, binding affinity and kinetics, C-CBL; details: SPR at 10° C., biotinylated C-CBL (46-435) on streptavidin chip; geometric mean; read-out: C-CBL SPR Kd (nM) GMean
T4 construct: N-terminal biotinylated WT CBL-B (36-427) and C-CBL (46-435) were captured on a streptavidin (SA) coated sensor chip
T4 sequence (P22681 46-435): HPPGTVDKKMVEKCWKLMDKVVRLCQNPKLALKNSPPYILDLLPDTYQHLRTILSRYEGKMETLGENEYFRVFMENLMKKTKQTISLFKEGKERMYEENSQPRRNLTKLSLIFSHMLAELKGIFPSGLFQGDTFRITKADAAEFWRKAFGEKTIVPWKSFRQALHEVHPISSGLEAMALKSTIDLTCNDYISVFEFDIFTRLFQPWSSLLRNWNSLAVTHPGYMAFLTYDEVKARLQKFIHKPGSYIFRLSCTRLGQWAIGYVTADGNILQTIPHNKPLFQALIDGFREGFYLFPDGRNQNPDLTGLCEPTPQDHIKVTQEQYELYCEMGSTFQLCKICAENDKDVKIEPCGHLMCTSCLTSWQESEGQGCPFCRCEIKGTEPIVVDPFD
Outline: as §2

[5] = CBL-B KO (C-CBL only), anti-CD3/anti-CD28 stimulation 4 hours, Table 16a
[6] = c-CBL KO (CBL-B only), anti-CD3/anti-CD28 stimulation 4 hours, Table 16a
[7] = CBL-B KO (expressing C-CBL only), Table 16b (further repetition)
[8] = C-CBL KO (expressing CBL-B only), Table 16b (further repetition)

In the case of Cn1cnnc1CC1(c2cccc(-c3n[nH]c4c(CN[C@H]5CCC(F)(F)C5)nc(C(F)(F)F)cc34)c2)COC1 [Example C38, (1S)-3,3-difluoro-N-{[3-(3-{3-[(4-methyl-4H-1,2,4-triazol-3-yl)methyl]oxetan-3-yl}phenyl)-5-(trifluoromethyl)-1H-pyrazolo[3,4-c]pyridin-7-yl]methyl}cyclopentan-1-amine], the EC50 [1, 5] was 494 nM, the Kd [2] was 7.5 nM and the EC50 [3, 6] was 71 nM. The Kd [4] was 70.5 nM.

Cn1cnnc1[C@@H](c1cccc(-c2n[nH]c3c(CN[C@H]4CCOC4)nc(C(F)(F)F)cc23)c1)C1CCC1 [Example D1, (3S)—N-{[3-{3-[(R)-cyclobutyl(4-methyl-4H-1,2,4-triazol-3-yl)methyl]phenyl}-5-(trifluoromethyl)-1H-pyrazolo[3,4-c]pyridin-7-yl]methyl}oxolan-3-amine] gave an EC50 [1, 5] of 1890 nM, a Kd [2] of 3.7 nM and an EC50 [3, 6] of 276 nM. For the same molecule, the Kd [4] was 208 nM.

Cn1cnnc1[C@@H](c1cccc(-c2n[nH]c3c(CNC4CCCC4)nc(C(F)(F)F)cc23)c1)C1CCC1 [Example D4] was tested, and the EC50 [1, 5] was 479 nM, the Kd [2] was 2.8 nM and the EC50 [3, 6] was 72 nM. For the same molecule, the Kd [4] was 106 nM.

Work on C[C@H](NC1CCC1)c1nc(C(F)(F)F)cc2c(-c3cccc(C4(Cc5nncn5C)COC4)c3)n[nH]c12 [Example F1, N-{(1S)-1-[3-(3-{3-[(4-methyl-4H-1,2,4-triazol-3-yl)methyl]oxetan-3-yl}phenyl)-5-(trifluoromethyl)-1H-pyrazolo[3,4-c]pyridin-7-yl]ethyl}cyclobutanamine] yielded an EC50 [1, 5] of 60 nM, an EC50 [1, 7] of 56 nM and a Kd [2] of 0.7 nM. It also gave an EC50 [3, 8] of 15 nM, an EC50 [3, 6] of 8 nM and a Kd [4] of 11.2 nM.

C[C@H](N)c1nc(C(F)(F)F)cc2c(-c3cccc([C@H](c4nncn4C)C4CCC4)c3)n[nH]c12 [Example K12, (1S)-1-[3-{3-[(R)-cyclobutyl(4-methyl-4H-1,2,4-triazol-3-yl)methyl]phenyl}-5-(trifluoromethyl)-1H-pyrazolo[3,4-c]pyridin-7-yl]ethan-1-amine] was tested, and the EC50 [1, 7] was 2080 nM, the Kd [2] was 4.2 nM and the EC50 [3, 8] was 895 nM. It also gave a Kd [4] of 209 nM.
